Where two headings read alike, the source gives them in different places.

As usually defined, the half-life is how long it takes for the measured level to halve. A higher half-life goes with slow loss.

Data set [1] deals with adenosine deaminase (ADA). Description: ADA-mediated deamination monitored by absorption and emission. In kind it is biochemical.
For data set [2] the following is noted: reported value, cited from earlier work.
Setting [3] is: Abs: monitored by absorption, first order fit.
Setting [4] is: Em: monitored by emission, first order fit.

For the compound `Nc1ncnc2c([C@@H]3O[C@H](CO)[C@@H](O)[C@H]3O)snc12` [^tzA], the kapp in data set [1] (setting [3]) and in data set [1] (setting [4]) was 220 ± 10 × 10^−4 s^−1 throughout. Also, the t1/2 is 0.32 ± 0.02 × 10^2 s in data set [1] (setting [3]), 0.31 ± 0.02 × 10^2 s in data set [1] (setting [4]), 32 ± 2 s in data set [1] (calculated from absorption spectroscopy data) and 31 ± 2 s in data set [1] (calculated from changes in emission spectra).

On to `Nc1ncnc2c1ncn2[C@@H]1O[C@H](CO)[C@@H](O)[C@H]1O` [A, adenosine], for which, in data set [1] (setting [3]), the kapp is given as 120 ± 10 × 10^−4 s^−1 and the t1/2 is 0.57 ± 0.01 × 10^2 s. In data set [1] (adenosine deaminase (ADA) enzyme reaction), this compound gave a half-life of 57 s. Also, the pKa in data set [2] (first pKa) is recorded as 3.6–4.2.

For `Nc1nc2c(ncn2[C@@H]2O[C@H](CO)[C@@H](O)[C@H]2O)c(=O)[nH]1` [G, guanosine], the pKa in data set [2] (first pKa) is on record as 3.2–3.3; in data set [2] (second pKa), 9.2–9.6.

For `O=c1ccn([C@@H]2O[C@H](CO)[C@@H](O)[C@H]2O)c(=O)[nH]1` [uridine], in data set [2] (first pKa), the pKa is 9.20–9.25.

(Values after PMC8891053 (Chemistry (Weinheim an der Bergstrasse, Germany), 2022).)
